What all share (format): cell-based
In one test the target is T1, human TLR7 (Homo sapiens, UniProt Q9NYK1).
T1 construct: host or cells: HEK-Blue cells
T1 sequence (Q9NYK1 27-1049): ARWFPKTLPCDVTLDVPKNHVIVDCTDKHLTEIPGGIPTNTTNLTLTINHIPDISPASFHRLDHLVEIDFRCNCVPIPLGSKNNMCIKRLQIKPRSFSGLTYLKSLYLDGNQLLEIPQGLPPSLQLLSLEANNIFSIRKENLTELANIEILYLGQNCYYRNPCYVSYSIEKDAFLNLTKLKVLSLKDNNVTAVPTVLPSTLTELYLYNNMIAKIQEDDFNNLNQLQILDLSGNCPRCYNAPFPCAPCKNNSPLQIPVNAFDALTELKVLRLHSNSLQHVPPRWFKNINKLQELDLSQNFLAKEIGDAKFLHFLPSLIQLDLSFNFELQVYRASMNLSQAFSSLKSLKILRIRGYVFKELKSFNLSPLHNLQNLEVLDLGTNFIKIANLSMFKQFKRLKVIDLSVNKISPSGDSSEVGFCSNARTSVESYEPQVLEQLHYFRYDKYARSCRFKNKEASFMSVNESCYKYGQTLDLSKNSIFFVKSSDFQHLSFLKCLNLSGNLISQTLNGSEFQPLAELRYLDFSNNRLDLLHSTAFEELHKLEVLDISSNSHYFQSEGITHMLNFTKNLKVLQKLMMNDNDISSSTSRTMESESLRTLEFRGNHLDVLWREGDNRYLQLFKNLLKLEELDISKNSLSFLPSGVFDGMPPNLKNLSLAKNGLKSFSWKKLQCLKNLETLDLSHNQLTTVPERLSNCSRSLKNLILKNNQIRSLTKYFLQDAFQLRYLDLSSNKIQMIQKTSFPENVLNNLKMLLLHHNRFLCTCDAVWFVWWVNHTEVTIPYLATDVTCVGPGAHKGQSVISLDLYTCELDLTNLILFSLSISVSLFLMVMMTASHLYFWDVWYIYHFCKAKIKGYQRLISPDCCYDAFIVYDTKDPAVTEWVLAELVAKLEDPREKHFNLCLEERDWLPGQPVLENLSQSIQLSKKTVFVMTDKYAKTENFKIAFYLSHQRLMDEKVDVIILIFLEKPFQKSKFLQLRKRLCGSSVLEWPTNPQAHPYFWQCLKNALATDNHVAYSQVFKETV
Briefly: TLR7 inhibition reporter assay (HEK-Blue cells, SEAP reporter, gardiquimod stimulation). The following applies: HEK-Blue cells overexpressing human TLR7, SEAP reporter, gardiquimod 7.5 μM. The gist of the method: (§1)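 Ligand levels: TLR7 gardiquimod 7.5 μM, TLR8 R848 15.9 μM, TLR9 ODN2006 5 nM, added after 30 min room-temperature compound pre-incubation at 0.05 nM-50 μM. Reporter SEAP read with HEK-Blue Detection reagent after 22 h, 37° C. Inhibition expressed as % reduction relative to agonist-plus-DMSO and known-inhibitor controls.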
In general terms: Reporter assays use an easily measured gene product as a stand-in for the process of interest.

In a further test the target is T2, human TLR8 (Homo sapiens, UniProt Q9NR97).
T2 construct: host or cells: HEK-Blue cells
T2 sequence (Q9NR97 27-1041): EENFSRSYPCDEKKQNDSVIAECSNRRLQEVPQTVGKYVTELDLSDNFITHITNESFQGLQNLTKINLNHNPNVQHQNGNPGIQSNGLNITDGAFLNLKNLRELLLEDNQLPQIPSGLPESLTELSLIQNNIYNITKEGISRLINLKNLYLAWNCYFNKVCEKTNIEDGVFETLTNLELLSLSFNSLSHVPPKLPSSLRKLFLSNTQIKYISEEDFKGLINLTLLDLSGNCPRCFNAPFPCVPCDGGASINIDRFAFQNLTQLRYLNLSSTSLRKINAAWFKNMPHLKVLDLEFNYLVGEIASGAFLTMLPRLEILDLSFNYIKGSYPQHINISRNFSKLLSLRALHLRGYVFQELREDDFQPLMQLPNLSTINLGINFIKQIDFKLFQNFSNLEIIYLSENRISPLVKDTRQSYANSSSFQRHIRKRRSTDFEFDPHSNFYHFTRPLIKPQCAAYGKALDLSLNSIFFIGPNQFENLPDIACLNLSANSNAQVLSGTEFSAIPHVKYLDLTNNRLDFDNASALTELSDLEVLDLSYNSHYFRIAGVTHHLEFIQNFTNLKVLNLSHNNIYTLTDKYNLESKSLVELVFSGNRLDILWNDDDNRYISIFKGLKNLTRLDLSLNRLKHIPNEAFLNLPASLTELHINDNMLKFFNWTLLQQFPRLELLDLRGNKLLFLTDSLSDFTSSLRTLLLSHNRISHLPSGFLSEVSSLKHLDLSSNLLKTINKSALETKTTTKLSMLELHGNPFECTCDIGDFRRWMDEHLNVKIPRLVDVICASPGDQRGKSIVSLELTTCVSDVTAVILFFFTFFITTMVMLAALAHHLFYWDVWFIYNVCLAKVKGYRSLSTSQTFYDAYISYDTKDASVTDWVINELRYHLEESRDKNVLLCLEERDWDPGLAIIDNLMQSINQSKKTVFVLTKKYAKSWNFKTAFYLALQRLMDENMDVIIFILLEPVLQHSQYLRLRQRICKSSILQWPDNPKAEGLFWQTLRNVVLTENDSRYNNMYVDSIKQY
Nature of the test: TLR8 inhibition reporter assay (HEK-Blue cells, SEAP reporter, R848 stimulation). The settings on record: HEK-Blue cells overexpressing human TLR8, SEAP reporter, R848 15.9 μM. The method, boiled down:
as §1

For another test, the target named is T3, human TLR9 (Homo sapiens, UniProt Q9NR96).
T3 construct: host or cells: HEK-Blue cells
T3 sequence (Q9NR96 26-1032): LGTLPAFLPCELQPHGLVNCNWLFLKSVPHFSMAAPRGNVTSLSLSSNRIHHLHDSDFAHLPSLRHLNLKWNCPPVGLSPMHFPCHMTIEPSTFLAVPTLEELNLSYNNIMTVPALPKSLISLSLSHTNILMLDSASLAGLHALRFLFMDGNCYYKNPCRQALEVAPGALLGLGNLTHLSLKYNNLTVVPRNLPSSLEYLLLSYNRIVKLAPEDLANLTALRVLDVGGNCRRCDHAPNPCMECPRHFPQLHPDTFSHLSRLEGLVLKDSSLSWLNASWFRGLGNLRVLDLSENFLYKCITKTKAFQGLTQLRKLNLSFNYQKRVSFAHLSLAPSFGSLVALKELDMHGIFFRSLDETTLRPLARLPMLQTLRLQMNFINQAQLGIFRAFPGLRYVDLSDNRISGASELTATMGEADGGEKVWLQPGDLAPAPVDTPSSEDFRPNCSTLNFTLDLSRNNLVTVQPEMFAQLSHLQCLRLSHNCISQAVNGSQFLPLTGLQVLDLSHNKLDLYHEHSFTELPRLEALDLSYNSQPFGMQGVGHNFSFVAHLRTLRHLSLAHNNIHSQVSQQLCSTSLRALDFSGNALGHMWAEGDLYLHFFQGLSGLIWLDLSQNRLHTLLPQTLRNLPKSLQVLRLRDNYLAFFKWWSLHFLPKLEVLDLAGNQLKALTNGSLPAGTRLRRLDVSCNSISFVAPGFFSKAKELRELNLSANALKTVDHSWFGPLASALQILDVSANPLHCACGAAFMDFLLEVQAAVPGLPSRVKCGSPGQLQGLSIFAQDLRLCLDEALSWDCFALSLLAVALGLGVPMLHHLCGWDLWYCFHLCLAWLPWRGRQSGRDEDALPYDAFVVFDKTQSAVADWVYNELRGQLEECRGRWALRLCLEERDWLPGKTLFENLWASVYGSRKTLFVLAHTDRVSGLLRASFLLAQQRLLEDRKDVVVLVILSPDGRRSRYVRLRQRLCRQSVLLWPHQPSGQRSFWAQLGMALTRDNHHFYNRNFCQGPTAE
Briefly: TLR9 inhibition reporter assay (HEK-Blue cells, SEAP reporter, ODN2006 stimulation). The settings on record: HEK-Blue cells overexpressing human TLR9, SEAP reporter, ODN2006 5 nM. The method, boiled down:
as §1

Turning to `CN[C@H](C)C(=O)N1CCCC(c2ccc3[nH]c(-c4cc(C)nc(C)c4)c(C(C)C)c3c2)C1` (stereo partly drawn) [Example 217], the IC50 against human TLR7 stood at 5 nM; against human TLR8 it was 51 nM; against human TLR9, 697 nM.

As for `COc1ccc(-c2[nH]c3ccc(C4CCC(N)CC4)cc3c2C(C)C)cc1OC` (stereo not drawn) [Example 450], the IC50 was 8 nM on human TLR7, 11 nM on human TLR8 and 2200 nM against human TLR9.

For `COc1cc(-c2[nH]c3ccc(C4CC(NC5COC5)C4)cc3c2C(C)C)cn2ncnc12` (stereo not drawn) [Example 579], the IC50 on human TLR7 was determined as 1 nM; against human TLR8 it was 0.73 nM; on human TLR9, 7410 nM.

Consider `COCCN1CCN(C2CCC(c3ccc4[nH]c(-c5cc(OC)c6ncnn6c5)c(C(C)C)c4c3)CC2)CC1` (single isomer, unassigned) [Example 38], for which the IC50 on human TLR7 came to 1 nM; on human TLR8, 2.1 nM; at human TLR9, 2090 nM.

For the compound `COc1cc(-c2[nH]c3ccc(C4CCC(NC(=O)CN(C)C)CC4)cc3c2C(C)C)cn2ncnc12` (stereo not drawn) [Example 127], the figures for the IC50 at human TLR7, against human TLR8 and against human TLR9 were 2 nM, 3.2 nM and 3160 nM, respectively.

Regarding `CNCC(=O)NC1(C)CCC(c2ccc3[nH]c(-c4cc(OC)c5ncnn5c4)c(C(C)C)c3c2)CC1` (stereo not drawn) [Example 155, N-(4-(3-isopropyl-2-(8-methoxy-[1,2,4]triazolo[1,5-a]pyridin-6-yl)-1H-indol-5-yl)-1-methylcyclohexyl)-2-(methylamino)acetamide], the IC50 worked out at 6 nM against human TLR7, 24 nM on human TLR8 and 3700 nM at human TLR9.

For `Cc1cc(-c2[nH]c3ccc(C4CCC(O)(C(F)(F)F)CC4)cc3c2C(C)C)cc(C)n1` (stereo not drawn) [Example 175, 4-(2-(2,6-dimethylpyridin-4-yl)-3-isopropyl-1H-indol-5-yl)-1-(trifluoromethyl)cyclohexanol], the IC50 against human TLR7 amounted to 37 nM; at human TLR8 it was 119 nM; against human TLR9 it was 2140 nM.

In the case of `COc1cc(-c2[nH]c3ccc(CCN4CCCCC4)cc3c2C(C)C)cn2ncnc12` [Example 412], the IC50 on human TLR7 came to 5 nM; against human TLR8 it was 2.9 nM; against human TLR9, 5270 nM.

`Cc1cc(-c2[nH]c3ccc(C4CN5CCC4CC5)cc3c2C(C)C)cc(C)n1` (single isomer, unassigned) [Example 363, 3-(2-(2,6-dimethylpyridin-4-yl)-3-isopropyl-1H-indol-5-yl)quinuclidine]: the figures for the IC50 on human TLR7, on human TLR8 and against human TLR9 were 2 nM, 5.3 nM and 438 nM, respectively.

In the case of `Cc1c(-c2[nH]c3ccc(C4CN(CC(=O)N(C)C)CCO4)cc3c2C(C)C)cn2ncnc2c1C` (stereo not drawn) [Example 321], the IC50 against human TLR7 is 15 nM; against human TLR8, 25 nM; at human TLR9, more than 50000 nM.

Regarding `COc1ccc(-c2[nH]c3ccc(C4CCCN(CC(=O)N(C)C)C4)cc3c2C(C)C)cc1OC` (stereo not drawn) [Example 227], the IC50 at human TLR7 was 156 nM; against human TLR8 it was 51 nM; on human TLR9, 3770 nM.

Turning to `Cc1cc(-c2[nH]c3ccc(C4CN(C(C)C)CCO4)cc3c2C(C)C)cc(C)n1` (stereo not drawn) [Example 303], the half-maximal inhibitory concentration (IC50) against human TLR7 was determined as 15 nM; against human TLR8, 12 nM; against human TLR9 it was 699 nM.

Take `Cc1c(-c2[nH]c3ccc(C4CC5CN(CC6(C)COC6)CC5C4)cc3c2C(C)C)cn2cnnc2c1C` (stereo not drawn) [Example 561]: the figures for the concentration for half-maximal inhibition (IC50) on human TLR7, against human TLR8 and at human TLR9 were 5 nM, 25 nM and 4680 nM, respectively.

Consider `CNCC(=O)N1CCCC(c2ccc3[nH]c(-c4cn5ncnc5c(C)c4C)c(C(C)C)c3c2)C1` (stereo not drawn) [Example 214], for which the half-maximal inhibitory concentration (IC50) on human TLR7 was found to be 2 nM; at human TLR8, 2.9 nM; on human TLR9, 5880 nM.

In the case of `CNC(=O)CN1CCOC(c2ccc3[nH]c(-c4cc(C)nc(C)c4)c(C(C)C)c3c2)C1` (stereo not drawn) [Example 325], the half-maximal inhibitory concentration (IC50) against human TLR7 was 29 nM; against human TLR8 it was 21 nM; against human TLR9, 36800 nM.

In the case of `Cc1cc(-c2[nH]c3ccc(C4CN(CC(=O)N(C)C)CCO4)cc3c2C(C)C)cc(C)n1` (stereo not drawn) [Example 326], the concentration for half-maximal inhibition (IC50) against human TLR7 turned out to be 75 nM; against human TLR8, 28 nM; on human TLR9 it was 19400 nM.

Take `Cc1cc(-c2[nH]c3ccc(C4CCCN(C(=O)[C@@H]5CCN5)C4)cc3c2C(C)C)cc(C)n1` (stereo partly drawn) [Example 220]: the results for the IC50 on human TLR7, at human TLR8 and on human TLR9 were 1 nM, 11 nM and 339 nM, respectively.

Consider `Cc1cc(-c2[nH]c3ccc(C4CNCCO4)cc3c2C(C)C)cn2ncnc12` (stereo not drawn) [Example 283], for which the results for the IC50 against human TLR7, at human TLR8 and on human TLR9 were 0.95 nM, 1.3 nM and 2670 nM, respectively.

In the case of `COc1cc(-c2[nH]c3ccc(C4CCC(N(C)OC)CC4)cc3c2C(C)C)cn2ncnc12` (stereo not drawn) [Example 100], the results for the IC50 at human TLR7, at human TLR8 and at human TLR9 were 32 nM, 431 nM and 14600 nM, respectively.

In the case of `Cc1cc(-c2[nH]c3ccc(C4CCC(C)(O)CC4)cc3c2C(C)C)cc(C)n1` (single isomer, unassigned) [Example 169], the IC50 was determined as 29 nM against human TLR7, 293 nM against human TLR8 and 41300 nM against human TLR9.

The term IC50 denotes the concentration that inhibits the measured activity by half. Read a high IC50 as weaker potency in that assay.

The values above are taken from patent US11878975B2, “Substituted indole compounds useful as TLR inhibitors” (BRISTOL-MYERS SQUIBB COMPANY, priority 2017, dated 2024).
